Here are results for 17 compounds from US20240067632A1, “WEE1 Degrading Compounds and Uses Thereof” (Bristol-Myers Squibb Company, priority 2022, published 2024).

The subject of assay [1] is MKN45 cells. The assay is described as follows: MKN45 cell proliferation assay (Cell-Titer-Glo, 120 h). It is filed as cell-based. As to conditions: for EC50: Homo sapiens, MKN-45, 120 h, Cell-Titer-Glo, read-out: MKN45 Cell Prolif. 120 hr (EC50); for MKN45 Cell Prolif. 120 hr (Ymin-Obs): minimal percent of DMSO control observed in the concentrations tested. The procedure, abridged:
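Growth inhibition was read as blank-corrected Cell-Titer-Glo luminescence expressed as percent DMSO control after 120 h at 37 C, 400 cells/well. Compounds tested in triplicate as 10-point half-log series from 1 or 10 uM, 0.1% DMSO; four-parameter fit gave EC50, and lowest observed percent control was reported as Ymin-obs.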

The target in assay [2] is T1, WEE1 (Homo sapiens, UniProt P30291+Q96SW2).
T1 construct: C-terminal ePL-tagged (DiscoverX, Fremont, CA) full-length WEE1 expression construct; expressed in transfected cells; host or cells: LentiX-HEK293T (Invitrogen), lentiviral transduction; co-expressing GSPT1-GN (G576N, lacking the first 158 amino acids)
The experiment in a line: WEE1-ePL degradation assay (LentiX-WEE1-ePL-GSPT1-ND cells, InCELL Hunter luminescence, 4 h). It counts as cell-based. As to conditions: 293T-LentiX WEE1-ePL cells; for DC50: read-out: 293T-LentiX WEE1-ePL Degradation 4 hr (EC50). The procedure, abridged:
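First, compounds were pre-plated as 10-point, 3-fold dilutions (top 1 uM or 10 uM) with DMSO control; next, WEE1-ePL-expressing HEK293T cells were added and held 4 h at 37 °C; finally, InCELL Hunter reagent was applied for 30 min before luminescence reading. A 4PL fit gave EC50 and Ymin.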

The mark [3] stands for this setting: lower limit of the fit (Ymin=0 luciferase inhibitor, Ymax DMSO control).
[4] abbreviates: lower limit of the fit (0 = luciferase inhibitor, Ymax = DMSO control).

Like-named read-outs stand apart in the source and are kept apart here. Bounds are passed on as bounds.

In general, EC50 refers to the concentration needed to bring the measured effect to its halfway point. For the compound `C[C@@H]1CN(Cc2ccc3nc([C@H]4CCOC4)ccc3c2)C[C@H]1Oc1ccc2c(c1)CN(C1CCC(=O)NC1=O)C2=O` (stereo partly drawn) [3-(5-{[(3S,4R)-4-methyl-1-({2-[(3R)-oxolan-3-yl]quinolin-6-yl}methyl)pyrrolidin-3-yl]oxy}-1-oxo-2,3-dihydro-1H-isoindol-2-yl)piperidine-2,6-dione], in assay [1], the EC50 was 0.00232 µM and the “MKN45 Cell Prolif. 120 hr (Ymin-Obs)” value worked out at 10.26. Moreover, in assay [2] (setting [3]), the “293T-LentiX WEE1-ePL Degradation 4 hr (Ymin)” value is on record as 33.41. Further, the DC50 in assay [2] worked out at 0.00141 µM.

With `O=C1CCC(N2Cc3cc(O[C@H]4CCN(Cc5cnc6cnccc6c5)C4)ccc3C2=O)C(=O)N1` (stereo partly drawn) [3-(5-{[(3S)-1-[(1,7-naphthyridin-3-yl)methyl]pyrrolidin-3-yl]oxy}-1-oxo-2,3-dihydro-1H-isoindol-2-yl)piperidine-2,6-dione], the EC50 in assay [1] (growth inhibition) turned out to be 0.0923 µM. The “MKN45 Cell Prolif. 120 hr (Ymin-Obs)” value in assay [1] was 9.14. In assay [2] (setting [4]), the “293T-LentiX WEE1-ePL Degradation 4 hr (Ymin)” value stood at 26.94. For the same compound, the DC50 in assay [2] is 0.0208 µM.

As to `CO[C@@H]1CCCN(c2ccc3cc(CN4CC[C@H](Oc5ccc6c(c5)CN(C5CCC(=O)NC5=O)C6=O)C4)ccc3n2)C1` (stereo partly drawn) [3-(5-{[(3S)-1-({2-[(3R)-3-methoxypiperidin-1-yl]quinolin-6-yl}methyl)pyrrolidin-3-yl]oxy}-1-oxo-2,3-dihydro-1H-isoindol-2-yl)piperidine-2,6-dione], the EC50 in assay [1] (growth inhibition) came out at 0.00391 µM. The “MKN45 Cell Prolif. 120 hr (Ymin-Obs)” value in assay [1] is reported as 6.79. In assay [2] (setting [4]), the “293T-LentiX WEE1-ePL Degradation 4 hr (Ymin)” value was 34. Further, the DC50 in assay [2] was determined as 0.00432 µM.

Regarding `CC(C)OCc1ccc2cc(CN3CC[C@H](Oc4ccc5c(c4)CN(C4CCC(=O)NC4=O)C5=O)C3)ccc2n1` (stereo partly drawn) [3-(1-oxo-5-{[(3S)-1-({2-[(propan-2-yloxy)methyl]quinolin-6-yl}methyl)pyrrolidin-3-yl]oxy}-2,3-dihydro-1H-isoindol-2-yl)piperidine-2,6-dione], in assay [1] (growth inhibition), the EC50 stood at 0.0034 µM. In addition, the “MKN45 Cell Prolif. 120 hr (Ymin-Obs)” value in assay [1] is 8.147. Moreover, the “293T-LentiX WEE1-ePL Degradation 4 hr (Ymin)” value in assay [2] (setting [4]) came out at 36. In addition, in assay [2], the DC50 was determined as 0.00651 µM.

For `O=C1CCC(N2Cc3cc(O[C@H]4CCN(Cc5ccc6c(c5)CCCN6)C4)ccc3C2=O)C(=O)N1` (stereo partly drawn) [3-(1-oxo-5-{[(3S)-1-[(1,2,3,4-tetrahydroquinolin-6-yl)methyl]pyrrolidin-3-yl]oxy}-2,3-dihydro-1H-isoindol-2-yl)piperidine-2,6-dione], the half-maximal effective concentration (EC50) in assay [1] (growth inhibition) is above 10 µM. The “MKN45 Cell Prolif. 120 hr (Ymin-Obs)” value in assay [1] came out at 93.175. Besides, the “293T-LentiX WEE1-ePL Degradation 4 hr (Ymin)” value in assay [2] (setting [4]) turned out to be 79. In addition, the DC50 in assay [2] stood at 3.33 µM.

On to `O=C1CC[C@H](N2Cc3cc(O[C@H]4CCN(Cc5cc6ccc(C7CCOCC7)cc6cn5)C4)ccc3C2=O)C(=O)N1` [(3S)-3-(5-{[(3S)-1-{[7-(oxan-4-yl)isoquinolin-3-yl]methyl}pyrrolidin-3-yl]oxy}-1-oxo-2,3-dihydro-1H-isoindol-2-yl)piperidine-2,6-dione], for which the EC50 in assay [1] (growth inhibition) amounted to 0.00182 µM. Moreover, in assay [1], the “MKN45 Cell Prolif. 120 hr (Ymin-Obs)” value came to 8.913. For the same compound, the “293T-LentiX WEE1-ePL Degradation 4 hr (Ymin)” value in assay [2] (setting [4]) was found to be 33.42. Also, the DC50 in assay [2] stood at 0.000844 µM.

`Cc1ccc2cc(CN3C[C@@H](Oc4ccc5c(c4)CN(C4CCC(=O)NC4=O)C5=O)C[C@@H]3C)ccc2n1` (stereo partly drawn) [3-(5-{[(3S,5S)-5-methyl-1-[(2-methylquinolin-6-yl)methyl]pyrrolidin-3-yl]oxy}-1-oxo-2,3-dihydro-1H-isoindol-2-yl)piperidine-2,6-dione]: in assay [1] (growth inhibition), the EC50 is above 10 µM. In addition, in assay [1], the “MKN45 Cell Prolif. 120 hr (Ymin-Obs)” value worked out at 82.25. Further, the “293T-LentiX WEE1-ePL Degradation 4 hr (Ymin)” value in assay [2] (setting [4]) came to 64.5. The DC50 in assay [2] is 0.0839 µM.

For `O=C1CCC(N2Cc3cc(O[C@H]4CCN(Cc5ccc6nc(Cl)ccc6c5)C4)ccc3C2=O)C(=O)N1` (stereo partly drawn) [3-(5-{[(3S)-1-[(2-chloroquinolin-6-yl)methyl]pyrrolidin-3-yl]oxy}-1-oxo-2,3-dihydro-1H-isoindol-2-yl)piperidine-2,6-dione], in assay [1] (growth inhibition), the half-maximal effective concentration (EC50) amounted to 0.00958 µM. The “MKN45 Cell Prolif. 120 hr (Ymin-Obs)” value in assay [1] amounted to 12.57. Further, the “293T-LentiX WEE1-ePL Degradation 4 hr (Ymin)” value in assay [2] (setting [4]) is on record as 29.2. The DC50 in assay [2] was found to be 0.00282 µM.

In the case of `O=C1CCC(N2Cc3cc(O[C@H]4CCN(Cc5ncc6ccccc6n5)C4)ccc3C2=O)C(=O)N1` (stereo partly drawn) [3-(1-oxo-5-{[(3S)-1-[(quinazolin-2-yl)methyl]pyrrolidin-3-yl]oxy}-2,3-dihydro-1H-isoindol-2-yl)piperidine-2,6-dione], the EC50 in assay [1] (growth inhibition) was 4.77 µM. For the same compound, the “MKN45 Cell Prolif. 120 hr (Ymin-Obs)” value in assay [1] came out at 74.28. Besides, the “293T-LentiX WEE1-ePL Degradation 4 hr (Ymin)” value in assay [2] (setting [4]) is 48.23. For the same compound, the DC50 in assay [2] was found to be 0.0519 µM.

As to `N#Cc1ccc2cc(CN3C[C@H](F)[C@H](Oc4ccc5c(c4)CN(C4CCC(=O)NC4=O)C5=O)C3)ccc2n1` (stereo partly drawn) [6-{[(3R,4S)-3-{[2-(2,6-dioxopiperidin-3-yl)-1-oxo-2,3-dihydro-1H-isoindol-5-yl]oxy}-4-fluoropyrrolidin-1-yl]methyl}quinoline-2-carbonitrile], in assay [1] (growth inhibition), the EC50 was 0.0227 µM. Further, the “MKN45 Cell Prolif. 120 hr (Ymin-Obs)” value in assay [1] is reported as 24.13. For the same compound, the “293T-LentiX WEE1-ePL Degradation 4 hr (Ymin)” value in assay [2] (setting [4]) is on record as 33.71. In addition, the DC50 in assay [2] came out at 0.0131 µM.

Regarding `O=C1CC[C@H](N2Cc3cc(O[C@H]4CCN(Cc5cc(C6CC6)c6nc(C7CCOCC7)ccc6c5)C4)ccc3C2=O)C(=O)N1` [(3S)-3-(5-{[(3S)-1-{[8-cyclopropyl-2-(oxan-4-yl)quinolin-6-yl]methyl}pyrrolidin-3-yl]oxy}-1-oxo-2,3-dihydro-1H-isoindol-2-yl)piperidine-2,6-dione], in assay [1], the EC50 was determined as 0.00016 µM and the “MKN45 Cell Prolif. 120 hr (Ymin-Obs)” value was 3.047. Moreover, the “293T-LentiX WEE1-ePL Degradation 4 hr (Ymin)” value in assay [2] (setting [3]) turned out to be 54.54. Further, the DC50 in assay [2] came out at 0.00258 µM.

For the compound `O=C1CC[C@H](N2Cc3cc(O[C@H]4CCN(Cc5ccc6ncccc6c5)C4)ccc3C2=O)C(=O)N1` [(3S)-3-(1-oxo-5-{[(3S)-1-[(quinolin-6-yl)methyl]pyrrolidin-3-yl]oxy}-2,3-dihydro-1H-isoindol-2-yl)piperidine-2,6-dione], in assay [1] (growth inhibition), the EC50 was 0.0314 µM. The “MKN45 Cell Prolif. 120 hr (Ymin-Obs)” value in assay [1] was found to be 12.265. The “293T-LentiX WEE1-ePL Degradation 4 hr (Ymin)” value in assay [2] (setting [4]) amounted to 26.52. Moreover, the DC50 in assay [2] turned out to be 0.00742 µM.

Consider `CO[C@@H]1CN(Cc2ccc3nc(C4CCOCC4)ccc3c2)C[C@H]1Oc1ccc2c(c1)CN(C1CCC(=O)NC1=O)C2=O` (stereo partly drawn) [3-(5-{[(3R,4R)-4-methoxy-1-{[2-(oxan-4-yl)quinolin-6-yl]methyl}pyrrolidin-3-yl]oxy}-1-oxo-2,3-dihydro-1H-isoindol-2-yl)piperidine-2,6-dione], for which the EC50 in assay [1] (growth inhibition) was 0.0169 µM. Further, the “MKN45 Cell Prolif. 120 hr (Ymin-Obs)” value in assay [1] stood at 22.78. The “293T-LentiX WEE1-ePL Degradation 4 hr (Ymin)” value in assay [2] (setting [4]) is on record as 37.67. The DC50 in assay [2] came out at 0.0117 µM.

With `O=C1CCC(N2Cc3cc(O[C@@H]4CN(Cc5ccc6nc([C@H]7CCOC7)ccc6c5)C[C@@H]4F)ccc3C2=O)C(=O)N1` (stereo partly drawn) [3-(5-{[(3R,4S)-4-fluoro-1-({2-[(3R)-oxolan-3-yl]quinolin-6-yl}methyl)pyrrolidin-3-yl]oxy}-1-oxo-2,3-dihydro-1H-isoindol-2-yl)piperidine-2,6-dione], in assay [1], the EC50 came out at 0.00496 µM and the “MKN45 Cell Prolif. 120 hr (Ymin-Obs)” value is 13.2. In assay [2] (setting [3]), the “293T-LentiX WEE1-ePL Degradation 4 hr (Ymin)” value is listed as 30.72. Also, the DC50 in assay [2] turned out to be 0.00384 µM.

Consider `N#Cc1ccc2cc(CN3C[C@@H](Oc4ccc5c(c4)CN(C4CCC(=O)NC4=O)C5=O)C(F)(F)C3)ccc2n1` (stereo partly drawn) [6-{[(4R)-4-{[2-(2,6-dioxopiperidin-3-yl)-1-oxo-2,3-dihydro-1H-isoindol-5-yl]oxy}-3,3-difluoropyrrolidin-1-yl]methyl}quinoline-2-carbonitrile], for which, in assay [1] (growth inhibition), the EC50 was determined as 0.0229 µM. Further, the “MKN45 Cell Prolif. 120 hr (Ymin-Obs)” value in assay [1] is reported as 22.8. Moreover, in assay [2] (setting [4]), the “293T-LentiX WEE1-ePL Degradation 4 hr (Ymin)” value amounted to 30.83. Further, the DC50 in assay [2] was 0.0202 µM.

On to `O=C1CC[C@H](N2Cc3cc(O[C@H]4CCN(Cc5ccc6nc(N7CCOCC7)ncc6c5)C4)ccc3C2=O)C(=O)N1` [(3S)-3-(5-{[(3S)-1-{[2-(morpholin-4-yl)quinazolin-6-yl]methyl}pyrrolidin-3-yl]oxy}-1-oxo-2,3-dihydro-1H-isoindol-2-yl)piperidine-2,6-dione], for which the EC50 in assay [1] (growth inhibition) amounted to 0.0117 µM. The “MKN45 Cell Prolif. 120 hr (Ymin-Obs)” value in assay [1] was determined as 11.86. Also, the “293T-LentiX WEE1-ePL Degradation 4 hr (Ymin)” value in assay [2] (setting [4]) was 34. In addition, the DC50 in assay [2] amounted to 0.00736 µM.

In the case of `O=C1CCC(N2Cc3cc(O[C@H]4CCN(Cc5ccc6nc(N7C[C@H]8C[C@@H](C7)O8)ncc6c5)C4)ccc3C2=O)C(=O)N1` (stereo partly drawn) [3-(5-{[(3S)-1-({2-[(1R,5S)-6-oxa-3-azabicyclo[3.1.1]heptan-3-yl]quinazolin-6-yl}methyl)pyrrolidin-3-yl]oxy}-1-oxo-2,3-dihydro-1H-isoindol-2-yl)piperidine-2,6-dione], in assay [1] (growth inhibition), the EC50 is 0.0164 µM. Further, the “MKN45 Cell Prolif. 120 hr (Ymin-Obs)” value in assay [1] is 13.42. Besides, the “293T-LentiX WEE1-ePL Degradation 4 hr (Ymin)” value in assay [2] (setting [4]) is 39. Further, the DC50 in assay [2] was found to be 0.0202 µM.
